According to patent US5405861A, “Triazole compounds and antifungal compositions thereof” (Takeda Chemical Industries, Co., Ltd., priority 1989, dated 1995):
Where two headings read alike, the source gives them in different places.

Legend:
[1] = test system: Candida albicans; assay: Infection-preventing effect in experimental infection in mice, Method 1 (Table 7-1); assay type: in vivo, Crj:CDF1 mice; conditions: given 0 and 2 hours after infection, survival 7 days after infection, total dose
Experimental: (§1) Method 1 (Table 7-1): To 5-week-old Crj:CDF1 mice the minimum lethal dose of Candida albicans was inoculated intravenously. The test drug was given twice 0 and 2 hours after infection. The effectiveness of the drug was expressed in ED50 values calculated by the Reed and Muench method from the survival rate 7 days after infection. The ED50 values were calculated based on the total dose given on the two occasions.

[2] = test system: Candida albicans (IFO 0538); assay: Antifungal activity against Candida albicans, paper disc growth inhibition zone (Tables 5 and 6); assay type: cell-based; conditions: 28° C., 2 days incubation; for zone of inhibition at 1000 µg/mL: 48 h, read-out: Inhibition zone diameter
Experimental: The antifungal activities of the compounds (I) were evaluated by the following method: a sheet of filter paper disc (manufactured by Toyo Seisakusho, 8 mm in diameter) soaked in a 1000 μg/ml solution of a compound (I) in methanol was placed on an agar plate, which was incubated at 28° C. for 2 days, and the diameter of the growth inhibition zone around the filter paper disc was measured. The following culture media were used:
A: yeast nitrogen base agar medium
B: yeast nitrogen base agar medium (pH 7.0)

[3] = test system: Candida albicans; assay: Infection-preventing effect in experimental infection in mice, Method 2 (Table 7-2); assay type: in vivo, Crj:CDF1 mice; conditions: po, 168 h, p.o., given just after infection, survival 7 days after infection
Experimental: as §1, with “Method 2” for “Method 1”, “(Table 7-2):” for “(Table 7-1):”, “given just” for “given twice 0 and 2 hours”

[4] = Candida albicans, sc, 168 h, s.c., read-out: ED50
[5] = pH 7, B medium (yeast nitrogen base agar, pH 7.0)
[6] = A medium (yeast nitrogen base agar)
[7] = Candida albicans, po, 168 h, p.o., read-out: ED50

SMILES	ED50 [1, 4] [mg/kg]	zone of inhibition at 1000 µg/mL [2, 5] [mm]	ED50 [3] [mg/kg]	other results
C[C@@H](SCc1ncc2cnccn12)[C@](O)(Cn1cncn1)c1ccc(F)cc1F (relative stereo) [Compound 57, (2RS,3RS)-2-(2,4-difluorophenyl)-3-(imidazo[1,5-a]pyradin-3-yl)methylthio-1-(1H-1,2,4-triazol-1-yl)-2-butanol]	0.5	30		
C[C@@H](SCc1nccn1C(CF)CF)[C@](O)(Cn1cncn1)c1ccc(F)cc1F (relative stereo) [Compound 59]	1.4	30		
CC(n1cncn1)C(O)(CS)c1ccc(F)cc1F (single isomer, unassigned) [Compound 115, 2-(2,4-difluorophenyl)-1-mercapto-3-[(1H)-1,2,4-triazol-1-yl]-2-butanol]	> 4	33		
CC(n1cncn1)C(O)(CS)c1ccc(F)cc1F (single isomer, unassigned) [Compound 116, 2-(2,4-difluorophenyl)-1-mercapto-3-[(1H)-1,2,4-triazol-1-yl]-2-butanol]				ED50 ([1]; s.c.): > 4.0 mg/kg; Inhibition zone diameter ([2]; B medium (yeast nitrogen base agar, pH 7.0)): 30 mm
OC(CSCCn1cncn1)(Cn1cncn1)c1ccc(F)cc1F (stereo not shown) [Compound 2]	19.3	17		zone of inhibition at 1000 µg/mL [2, 6]: 18 mm
O=S(=O)(CCn1cncn1)CC(O)(Cn1cncn1)c1ccc(F)cc1F (stereo not shown) [Compound 3]	32.4			zone of inhibition at 1000 µg/mL [2, 6]: 13 mm
CC(SCC(O)(Cn1cncn1)c1ccc(F)cc1F)c1ccncc1 (stereo not shown) [Compound 10]	35.4			Inhibition zone diameter [2, 6]: 21 mm
C[C@H](S)[C@@](O)(Cn1cncn1)c1ccc(F)cc1F [Compound 42, (2S,3S)-2-(2,4-difluorophenyl)-3-mercapto-1-(1H-1,2,4-triazol-1-yl)-2-butanol]		34	> 4	
C[C@@H](S)[C@](O)(Cn1cncn1)c1ccc(F)cc1F [Compound 43, (2R,3R)-2-(2,4-difluorophenyl)-3-mercapto-1-(1H-1,2,4-triazol-1-yl)-2-butanol]	0.18	40		ED50 [1, 7]: 0.18 mg/kg
CC(=O)S[C@H](C)[C@](O)(Cn1cncn1)c1ccc(F)cc1F [Compound 45, (2R,3R)-3-acetylthio-2-(2,4-difluorophenyl)-1-(1H-1,2,4-triazol-1-yl)-2-butanol]	0.16	40		ED50 [1, 7]: 0.18 mg/kg
CC(C)C(=O)S[C@H](C)[C@](O)(Cn1cncn1)c1ccc(F)cc1F [Compound 62, (2R,3R)-2-(2,4-difluorophenyl)-3-isobutyrylthio-1-(1H-1,2,4-triazol-1-yl)-2-butanol]	0.5	45		ED50 [1, 7]: 0.35 mg/kg
C[C@@H](SCc1nccn1C)[C@](O)(Cn1cncn1)c1ccc(F)cc1F [Compound 78]		30	0.5	
C[C@@H](SCc1cncn1C)[C@](O)(Cn1cncn1)c1ccc(F)cc1F [Compound 91]		30	< 0.25	
C[C@@H](SCc1ncc2n1CCC2)[C@](O)(Cn1cncn1)c1ccc(F)cc1F [Compound 97]		27	0.5	
Cc1csc(CS[C@H](C)[C@](O)(Cn2cncn2)c2ccc(F)cc2F)n1 [Compound 99]		35	1.4	
Cc1nc(CS[C@H](C)[C@](O)(Cn2cncn2)c2ccc(F)cc2F)cs1 [Compound 107]	0.71	33	0.39	ED50 [1, 7]: < 0.5 mg/kg
Cc1ncc(CS[C@H](C)[C@](O)(Cn2cncn2)c2ccc(F)cc2F)s1 [Compound 108]		40	1.4	
C[C@@H](SCc1nccn1CC(F)F)[C@](O)(Cn1cncn1)c1ccc(F)cc1F [Compound 109]		28	0.5	
C[C@@H](SCc1nccn1C1CC1)[C@](O)(Cn1cncn1)c1ccc(F)cc1F [Compound 110]	0.35	40		ED50 [1, 7]: 0.35 mg/kg

SMILES	ED50 [1, 4] [mg/kg]	zone of inhibition at 1000 µg/mL [2, 5] [mm]	ED50 [3] [mg/kg]	other results
Cc1oc(=O)oc1CS[C@H](C)[C@](O)(Cn1cncn1)c1ccc(F)cc1F [Compound 111]	0.71	35		ED50 [1, 7]: 0.89 mg/kg
C[C@@H](SCc1ncc2cnccn12)[C@](O)(Cn1cncn1)c1ccc(F)cc1F [Compound 112]		30	0.5	
C[C@@H](SCc1nncn1C1CC1)[C@](O)(Cn1cncn1)c1ccc(F)cc1F [Compound 114]		15	0.4	
C[C@@H](S)[C@@](O)(Cn1cncn1)c1ccc(F)cc1F [Compound 117, (2S,3R)-2-(2,4-difluorophenyl)-3-mercapto-1-(1 H-1,2,4-triazol-1-yl)-2-butanol]		25	> 4	
C[C@H](S)[C@](O)(Cn1cncn1)c1ccc(F)cc1F [Compound 118, (2R,3S)-2-(2,4-difluorophenyl)-3-mercapto-1-(1H-1,2,4-triazol-1-yl)-2-butanol]		33	2.8	
CC(C)(S)C(O)(Cn1cncn1)c1ccc(F)cc1F (stereo not shown) [Compound 119]		30	0.18	
OC(Cn1cncn1)(c1ccc(F)cc1F)C1(S)CC1 (stereo not shown) [Compound 120]		30	0.35	
C[C@@H](SCc1csc(N)n1)[C@](O)(Cn1cncn1)c1ccc(F)cc1F [Compound 121]		35	0.5	
C[C@@H](SCc1csc(C(F)(F)F)n1)[C@](O)(Cn1cncn1)c1ccc(F)cc1F [Compound 122]		35	0.5	
C[C@@H](SCc1csc(C2CC2)n1)[C@](O)(Cn1cncn1)c1ccc(F)cc1F [Compound 123]		35	0.5	
C[C@@H](SCc1cn2ccncc2n1)[C@](O)(Cn1cncn1)c1ccc(F)cc1F [Compound 124]		30	0.7	
C[C@@H](SCc1cn2cccnc2n1)[C@](O)(Cn1cncn1)c1ccc(F)cc1F [Compound 125]		33	0.5	
C[C@@H](SCc1ccncn1)[C@](O)(Cn1cncn1)c1ccc(F)cc1F [Compound 126]		38	2	
Cc1nccc(CS[C@H](C)[C@](O)(Cn2cncn2)c2ccc(F)cc2F)n1 [Compound 127]		33	2	
C[C@@H](SCc1nsc(N)n1)[C@](O)(Cn1cncn1)c1ccc(F)cc1F [Compound 128]		30	2	
C[C@@H](SCc1cnc2cccnn12)[C@](O)(Cn1cncn1)c1ccc(F)cc1F [Compound 129]		35	0.5	
C[C@@H](SCc1ncc2ncccn12)[C@](O)(Cn1cncn1)c1ccc(F)cc1F [Compound 130]		35	0.7	
C[C@@H](SCc1ncc2cccnn12)[C@](O)(Cn1cncn1)c1ccc(F)cc1F [Compound 131]		40	0.7	
